The EC50 is the concentration giving half of the maximal effect.

For one assay, the system named is Myotonic Dystrophy 1 affected patient fibroblasts (Coriell GM04602; 1600 CTG repeats). As to the kind of experiment: DM1 foci reduction assay (CAG10-Cy3 FISH, average foci per nucleus). The class given is cell-based. Particulars: Homo sapiens, Fibroblast, 48 h, read-out: Foci Reduction in Fibroblast EC50, 48 h (nM). In a few lines: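 DM1 patient fibroblasts (GM04602, 1600 CTG) treated 48 h at 37 °C, 8-point 1:3 dilutions from 3 μM top dose; wild-type GM07492 as control. PFA-fixed, ethanol-permeabilized cells hybridized overnight with 5 nM CAG10-Cy3 probe, DAPI-counterstained, imaged at 20× in 4 fields; average foci per nucleus per well.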
Take `CCN(CC)CCCC[C@H](NC(=O)[C@H](CC(C)C)NC(=O)[C@H](C)NC(=O)[C@H](Cc1ccccc1)NC(=O)c1ccc(C(C)(C)C)cc1)C(=O)N[C@@H](CO)C(=O)Nc1ccc(OCCOCCOCCNC(=O)CCNC(=O)c2nc(NC(=O)c3cc(NC(=O)CCNC(=O)c4nc(NC(=O)CCCNC(=O)c5cc(NC(=O)c6nc(NC(=O)CCNC(=O)c7cc(NC(=O)c8nccn8C)cn7C)cn6C)cn5C)cn4C)cn3C)cn2C)cc1` [Compound 178]: the EC50 is below 100 nM.
The same measure, in the same setting: the figure for `CCN(CC)CCCC[C@H](NC(=O)[C@H](CC(C)C)NC(=O)[C@H](C)NC(=O)[C@H](Cc1ccccc1)NC(=O)c1ccc(C(C)(C)C)cc1)C(=O)N[C@@H](CO)C(=O)NCCOCCOCCOCCOCCOCCNC(=O)c1cc(NC(=O)c2nc(NC(=O)[C@@H](CCNC(=O)c3cc(NC(=O)c4nc(NC(=O)CCNC(=O)c5cc(NC(=O)c6nccn6C)cn5C)cn4C)cn3C)NC(C)=O)cn2C)cn1C` [Compound 112] is above 500 nM; for `CCN(CC)CCCC[C@H](NC(=O)[C@H](CC(C)C)NC(=O)[C@H](C)NC(=O)[C@H](Cc1ccccc1)NC(=O)c1ccc(C(C)(C)C)cc1)C(=O)N[C@@H](CO)C(=O)NCCOCCOCCOCCOCCOCCNC(=O)c1nc(NC(=O)CCNC(=O)c2cc(NC(=O)c3nc(NC(=O)CCCNC(=O)c4cc(NC(=O)c5nc(NC(=O)c6cc(NC(=O)c7cccn7C)cn6C)cn5C)cn4C)cn3C)cn2C)cn1C` [Compound 107] it is above 500 nM; for `CC(C)C[C@H](NC(=O)[C@H](C)NC(=O)[C@H](Cc1ccccc1)NC(=O)c1ccc(C(C)(C)C)cc1)C(=O)N[C@@H](CCCCN(C)C1CC2CCC1C2)C(=O)N[C@@H](CO)C(=O)NCCOCCOCCOCCOCCOCCNC(=O)c1cc(NC(=O)c2cc(NC(=O)c3nc(NC(=O)c4cc(NC(=O)[C@@H](N)CCNC(=O)c5nc(NC(=O)c6cc(NC(=O)c7cc(NC(=O)c8nccn8C)cn7C)cn6C)cn5C)cn4C)cn3C)cn2C)cn1C` (stereo partly shown) [Compound 58] it is above 500 nM.
Same read-out and setting: the figure for `CC(C)C[C@H](NC(=O)[C@H](Cc1ccccc1)NC(=O)[C@H](CCCCN(C)C(C)C)NC(=O)[C@@H]1C[C@@H]2CCCC[C@@H]2N1)C(=O)NCCOCCOCCOCCOCCOCCNC(=O)CCNC(=O)c1nc(NC(=O)c2cc(NC(=O)CCNC(=O)c3nc(NC(=O)CCCNC(=O)c4cc(NC(=O)c5nc(NC(=O)CCNC(=O)c6cc(NC(=O)c7nccn7C)cn6C)cn5C)cn4C)cn3C)cn2C)cn1C` [Compound 145] is 100 to 500 nM; for `CCN(CC)CCCC[C@H](NC(=O)[C@H](CC(C)C)NC(=O)[C@H](C)NC(=O)[C@H](Cc1ccccc1)NC(=O)c1ccc(C(C)(C)C)cc1)C(=O)N[C@@H](CO)C(=O)N(C)CCOCCOCCNC(=O)CCNC(=O)c1nc(NC(=O)c2cc(NC(=O)CCNC(=O)c3nc(NC(=O)CCCNC(=O)c4cc(NC(=O)c5nc(NC(=O)CCNC(=O)c6cc(NC(=O)c7nccn7C)cn6C)cn5C)cn4C)cn3C)cn2C)cn1C` [Compound 75] it is below 100 nM; for `CCN(CC)CCCC[C@H](NC(=O)[C@H](CC(C)C)NC(=O)[C@H](C)NC(=O)[C@H](Cc1ccccc1)NC(=O)c1ccc(C(C)(C)C)cc1)C(=O)N[C@@H](CO)C(=O)Nc1ccc(OCCOCCOCCOCCOCCNC(=O)CCNC(=O)c2nc(NC(=O)c3cc(NC(=O)CCNC(=O)c4nc(NC(=O)CCCNC(=O)c5cc(NC(=O)c6nc(NC(=O)CCNC(=O)c7cc(NC(=O)c8nccn8C)cn7C)cn6C)cn5C)cn4C)cn3C)cn2C)cc1` [Compound 177] it is below 100 nM.
For the molecule `CCN(CC)CCCC[C@H](NC(=O)[C@H](CC(C)C)NC(=O)[C@H](C)NC(=O)[C@H](Cc1ccccc1)NC(=O)c1ccc(C(C)(C)C)cc1)C(=O)N[C@@H](CO)C(=O)NCCOCCOCCOCCOCCOCCNC(=O)c1nc(NC(=O)c2cc(NC(=O)CCNC(=O)c3nc(NC(=O)CCCNC(=O)c4nc(NC(=O)c5nc(CC(=O)CCNC(=O)c6cc(NC(=O)c7nccn7C)cn6C)cn5C)cn4C)cn3C)cn2C)cn1C` [Compound 103], the EC50 is below 100 nM.
The same measure, in the same setting: the figure for `CCN(CC)CCCC[C@H](NC(=O)[C@H](CC(C)C)NC(=O)[C@H](C)NC(=O)[C@H](Cc1ccccc1)NC(=O)c1ccccc1)C(=O)N[C@@H](CO)C(=O)NCCOCCOCCOCCOCCOCCNC(=O)c1cc(NC(=O)c2cc(NC(=O)c3nc(NC(=O)c4cc(NC(=O)[C@@H](N)CCNC(=O)c5nc(NC(=O)CCNC(=O)c6cc(NC(=O)c7nccn7C)cn6C)cn5C)cn4C)cn3C)cn2C)cn1C` [Compound 90] is above 500 nM.
Same read-out and setting: next, `CCN(CC)CCCC[C@H](NC(=O)[C@H](CC(C)C)NC(=O)[C@H](C)NC(=O)[C@H](Cc1ccccc1)NC(=O)c1ccc(C(C)(C)C)cc1)C(=O)N[C@@H](CO)C(=O)NCCOCCOCCOCCOCCOCCNC(=O)c1cc(NC(=O)c2nc(NC(=O)c3cc(NC(=O)[C@H](N)CCNC(=O)c4nc(NC(=O)CCNC(=O)c5cc(NC(=O)c6nccn6C)cn5C)cn4C)cn3C)cn2C)cn1C` [Compound 116]: above 500 nM; `CCN(CC)CCCC[C@H](NC(=O)[C@H](CC(C)C)NC(=O)[C@H](C)NC(=O)[C@H](Cc1ccccc1)NC(=O)c1ccc(C(C)(C)C)cc1)C(=O)N[C@@H](CO)C(=O)NCCOCCOCCOCCOCCOCCN(CCCCN=[N+]=[N-])C(=O)CCNC(=O)c1nc(NC(=O)c2cc(NC(=O)CCNC(=O)c3nc(NC(=O)CCCNC(=O)c4cc(NC(=O)c5nc(NC(=O)CCNC(=O)c6cc(NC(=O)c7nccn7C)cn6C)cn5C)cn4C)cn3C)cn2C)cn1C` [Compound 189]: below 100 nM.
As for `CC(C)C[C@H](NC(=O)[C@H](C)NC(=O)[C@H](Cc1ccccc1)NC(=O)c1ccc(C(C)(C)C)cc1)C(=O)N[C@@H](CCCCN(C)C1CC2CCC1C2)C(=O)N[C@@H](CO)C(=O)NCCOCCOCCOCCOCCOCCOCCOCCOCCOCCOCCNC(=O)c1cc(NC(=O)c2cc(NC(=O)c3nc(NC(=O)c4cc(NC(=O)[C@@H](N)CCNC(=O)c5nc(NC(=O)c6cc(NC(=O)c7cc(NC(=O)c8nccn8C)cn7C)cn6C)cn5C)cn4C)cn3C)cn2C)cn1C` (stereo partly shown) [Compound 119], the EC50 is above 500 nM.
Still for that read-out and setting: next, `CCN(CC)CCCC[C@H](NC(=O)CNC(=O)CNC(=O)CNC(=O)c1ccc(C(C)(C)C)cc1)C(=O)N[C@@H](CO)C(=O)NCCOCCOCCOCCOCCOCCNC(=O)CCNC(=O)c1nc(NC(=O)c2cc(NC(=O)CCNC(=O)c3nc(NC(=O)CCCNC(=O)c4cc(NC(=O)c5nc(NC(=O)CCNC(=O)c6cc(NC(=O)c7nccn7C)cn6C)cn5C)cn4C)cn3C)cn2C)cn1C` [Compound 99]: below 100 nM; `CN(CCCC[C@H](NC(=O)COCCOCCNC(=O)c1ccc(C(C)(C)C)cc1)C(=O)N[C@@H](CO)C(=O)NCCOCCOCCOCCOCCOCCNC(=O)CCNC(=O)c1nc(NC(=O)c2cc(NC(=O)CCNC(=O)c3nc(NC(=O)CCCNC(=O)c4cc(NC(=O)c5nc(NC(=O)CCNC(=O)c6cc(NC(=O)c7nccn7C)cn6C)cn5C)cn4C)cn3C)cn2C)cn1C)C1CC2CCC1C2` (stereo partly shown) [Compound 68]: 100 to 500 nM.

Still in this assay, the particulars now being: Homo sapiens, Fibroblast; DM1 fibroblasts, 48 h treatment, 8-point dose response, 3 μM top dose; read-out: Foci Reduction in Fibroblast EC50, 48 h.
Consider `Cc1nc(CCC(=O)NCCOCCOCCOCCOCCOCCNC(=O)CCNC(=O)c2nc(NC(=O)c3cc(NC(=O)CCNC(=O)c4nc(NC(=O)CCCNC(=O)c5cc(NC(=O)c6nc(NC(=O)CCNC(=O)c7cc(NC(=O)c8nccn8C)cn7C)cn6C)cn5C)cn4C)cn3C)cn2C)ccc1-c1cnc(NCc2c(F)ccc3c2CCO3)n2cnnc12` [Compound 62], for which the EC50 was above 500 nM.
The same measure, in the same setting: next, `CN(C)[C@@H]1CN(C2CCc3cccc(F)c32)C[C@H]1c1ccc(N2CCN(S(=O)(=O)CCOCCOCCOCCOCCOCCNC(=O)CCNC(=O)c3nc(NC(=O)c4cc(NC(=O)CCNC(=O)c5nc(NC(=O)CCCNC(=O)c6cc(NC(=O)c7nc(NC(=O)CCNC(=O)c8cc(NC(=O)c9nccn9C)cn8C)cn7C)cn6C)cn5C)cn4C)cn3C)CC2)cc1` (stereo partly shown) [Compound 175]: 100 to 500 nM; `CCN(c1cc(-c2ccc(CN3CCN(CCOCCOCCNC(=O)CCNC(=O)c4nc(NC(=O)c5cc(NC(=O)CCNC(=O)c6nc(NC(=O)CCCNC(=O)c7cc(NC(=O)c8nc(NC(=O)CCNC(=O)c9cc(NC(=O)c%10nccn%10C)cn9C)cn8C)cn7C)cn6C)cn5C)cn4C)CC3)cc2)cc(C(=O)NCc2c(C)cc(C)[nH]c2=O)c1C)C1CCOCC1` [Compound 165]: above 500 nM.
With `CCCCN(Cc1ccc(C(=O)NO)cc1)C(=O)Nc1ccc(OCc2cn(CCOCCOCCNC(=O)CCNC(=O)c3nc(NC(=O)c4cc(NC(=O)CCNC(=O)c5nc(NC(=O)CCCNC(=O)c6cc(NC(=O)c7nc(NC(=O)CCNC(=O)c8cc(NC(=O)c9nccn9C)cn8C)cn7C)cn6C)cn5C)cn4C)cn3C)nn2)cc1` [Compound 127], the EC50 is above 500 nM.
As to `Cn1cc(NC(=O)c2cc(NC(=O)c3nc(NC(=O)c4cc(NC(=O)[C@@H](N)CCNC(=O)c5nc(NC(=O)CCNC(=O)c6cc(NC(=O)c7nccn7C)cn6C)cn5C)cn4C)cn3C)cn2C)cc1C(=O)NCCOCCOCCOCCOCCOCCN1CCC(C(=O)Nc2ncc(SCc3ncc(C(C)(C)C)o3)s2)CC1` [Compound 120], the EC50 was above 500 nM.
On the same count and under the same terms, next, `CCCCN(Cc1ccc(C(=O)NO)cc1)C(=O)Nc1ccc(OCc2cn(CCOCCOCCOCCOCCOCCOCCNC(=O)CCNC(=O)c3nc(NC(=O)c4cc(NC(=O)CCNC(=O)c5nc(NC(=O)CCCNC(=O)c6cc(NC(=O)c7nc(NC(=O)CCNC(=O)c8cc(NC(=O)c9nccn9C)cn8C)cn7C)cn6C)cn5C)cn4C)cn3C)nn2)cc1` [Compound 128]: above 500 nM; `CC(=O)c1cc(-c2ccccc2S(C)(=O)=O)c2cc(OCCOCCOCCOCCOCCOCCNC(=O)CCNC(=O)c3nc(NC(=O)c4cc(NC(=O)CCNC(=O)c5nc(NC(=O)CCCNC(=O)c6cc(NC(=O)c7nc(NC(=O)CCNC(=O)c8cc(NC(=O)c9nccn9C)cn8C)cn7C)cn6C)cn5C)cn4C)cn3C)ccn12` [Compound 169]: above 500 nM.
On the same count and under the same terms, next, `COc1c(OCCOCCOCCOCCOCCOCCNC(=O)CCNC(=O)c2nc(NC(=O)c3cc(NC(=O)CCNC(=O)c4nc(NC(=O)CCCNC(=O)c5cc(NC(=O)c6nc(NC(=O)CCNC(=O)c7cc(NC(=O)c8nccn8C)cn7C)cn6C)cn5C)cn4C)cn3C)cn2C)cccc1C(=O)N1CCN(C(=O)COc2cc(C)cc(C)c2)CC1` [Compound 91]: above 500 nM.

The values above are taken from patent US20240166693A1, “METHODS AND COMPOUNDS FOR MODULATING MYOTONIC DYSTROPY 1” (Design Therapeutics, Inc., priority 2020, published 2024).
